Data published in patent US20210300900A1, “OGA INHIBITOR COMPOUNDS” (Janssen Pharmaceutica NV, priority 2018, published 2021).

Target: T1, recombinant human Meningioma Expressed Antigen 5 (MGEA5), also referred to as O-GcNAcase (OGA) (Homo sapiens, UniProt O60502)
T1 construct: Full length OGA enzyme was purchased at OnGene (cat #TP322411); purchased OnGene (so in the source)
T1 sequence (O60502 1-916): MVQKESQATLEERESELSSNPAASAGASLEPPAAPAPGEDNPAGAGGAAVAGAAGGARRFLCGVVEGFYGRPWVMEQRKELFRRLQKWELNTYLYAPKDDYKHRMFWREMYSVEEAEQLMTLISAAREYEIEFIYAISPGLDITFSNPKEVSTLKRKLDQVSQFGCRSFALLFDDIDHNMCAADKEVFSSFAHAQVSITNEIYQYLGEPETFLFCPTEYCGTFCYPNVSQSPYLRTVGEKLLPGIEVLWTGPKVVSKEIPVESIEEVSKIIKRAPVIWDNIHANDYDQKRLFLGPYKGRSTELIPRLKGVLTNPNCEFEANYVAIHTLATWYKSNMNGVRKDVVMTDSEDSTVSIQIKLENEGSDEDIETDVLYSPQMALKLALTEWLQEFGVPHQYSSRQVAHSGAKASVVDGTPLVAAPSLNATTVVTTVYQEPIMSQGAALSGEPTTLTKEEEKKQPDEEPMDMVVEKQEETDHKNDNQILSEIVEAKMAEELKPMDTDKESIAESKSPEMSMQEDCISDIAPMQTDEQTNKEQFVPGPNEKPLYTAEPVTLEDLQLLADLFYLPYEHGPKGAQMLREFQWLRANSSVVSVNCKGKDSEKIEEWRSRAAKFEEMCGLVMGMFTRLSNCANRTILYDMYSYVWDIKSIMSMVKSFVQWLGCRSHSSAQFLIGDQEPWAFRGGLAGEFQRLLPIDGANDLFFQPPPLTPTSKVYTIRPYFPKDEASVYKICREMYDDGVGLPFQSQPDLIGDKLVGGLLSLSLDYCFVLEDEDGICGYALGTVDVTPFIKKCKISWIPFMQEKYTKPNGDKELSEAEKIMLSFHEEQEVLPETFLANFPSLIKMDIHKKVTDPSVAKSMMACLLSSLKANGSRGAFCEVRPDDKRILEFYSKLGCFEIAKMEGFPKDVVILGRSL
Experiment: OGA biochemical assay (inhibition of FM-GlcNAc hydrolysis, fluorescence)
Conditions: FM-GlcNAc substrate; for Emax: read-out: Enzymatic Emax (%); for IC50: read-out: Enzymatic hOGA, pIC50 (converted)
Source text: The assay is based on the inhibition of the hydrolysis of fluorescein mono-β-D-N-Acetyl-Glucosamine (FM-GlcNAc) (Mariappa et al. 2015, Biochem J 470:255) by the recombinant human Meningioma Expressed Antigen 5 (MGEA5), also referred to as O-GcNAcase (OGA). The hydrolysis FM-GlcNAc (Marker Gene technologies, cat #M1485) results in the formation of B-D-N-glucosamineacetate and fluorescein. The fluorescence of the latter can be measured at excitation wavelength 485 nm and emission wavelength 538 nm. An increase in enzyme activity results in an increase in fluorescence signal. Full length OGA enzyme was purchased at OnGene (cat #TP322411). The enzyme was stored in 25 mM Tris.HCl, pH 7.3, 100 mM glycine, 10% glycerol at −20° C. Thiamet G and GlcNAcStatin were tested as reference compounds (Yuzwa et al. 2008 Nature Chemical Biology 4:483; Yuzwa et al. 2012 Nature Chemical Biology 8:393). The assay was performed in 200 mM Citrate/phosphate buffer supplemented with 0.005% Tween-20. 35.6 g Na2HPO4 2H2O (Sigma, #C0759) were dissolved in 1 L water to obtain a 200 mM solution. 19.2 g citric acid (Merck, #1.06580) was dissolved in 1 L water to obtain a 100 mM solution. pH of the sodiumphosphate solution was adjusted with the citric acid solution to 7.2. The buffer to stop the reaction consists of a 500 mM Carbonate buffer, pH 11.0. 734 mg FM-GlcNAc were dissolved in 5.48 mL DMSO to obtain a 250 mM solution and was stored at −20° C. OGA was used at a 2 nM concentration and FM-GlcNAc at a 100 uM final concentration. Dilutions were prepared in assay buffer.
50 nl of a compound dissolved in DMSO was dispensed on Black Proxiplate TM 384 Plus Assay plates (Perkin Elmer, #6008269) and 3 μl fl-OGA enzyme mix added subsequently. Plates were pre-incubated for 60 min at room temperature and then 2 μl FM-GlcNAc substrate mix added. […] Plates were briefly centrifuged for 1 min at 1000 rpm and incubate at room temperature for 6 h. To stop the reaction 5 μl STOP buffer were added and plates centrifuge again 1 min at 1000 rpm. Fluorescence was quantified in the Thermo Scientific Fluoroskan Ascent or the PerkinElmer EnVision with excitation wavelength 485 nm and emission wavelength 538 nm.
For analysis a best-fit curve is fitted by a minimum sum of squares method. From this an IC50 value and Hill coefficient was obtained. High control (no inhibitor) and low control (saturating concentrations of standard inhibitor) were used to define the minimum and maximum values.

## Cc1cc(C[C@H]2CCCN(Cc3cnc(C4CC4)[nH]3)C2)cc(C)n1 [Product 165]
  Emax: 24%
  IC50: > 10 µM

## COc1cc(C[C@H]2CCCN(C(C)c3nc(OC)ccc3F)C2)cc(C)n1 (some centres unmarked) [Product 69]
Listed as 69
  Enzymatic Emax (%): 103%
  IC50: 0.0759 µM

## CC(=O)Nc1nc(CN2CCC[C@H](Cc3cc(C)nc(C)c3)C2)c[nH]1 [Product 135]
  Emax: 98%
  IC50: 0.49 µM

## CC(=O)Nc1cc(CN2CCCC(COc3cc(C)nc(C)c3)C2)n[nH]1 (centres unmarked) [Product 119]
  Emax: 92%
  IC50: 1.23 µM

## COc1cccc(C(C)N2CC[C@H](Cc3cncc(C(F)(F)F)c3)C2)n1 (mixture of isomers) [Product 141]
  Emax: 35.6%
  IC50: > 10 µM

## COc1ccc(F)c(C(C)N2CCC[C@H](Cc3cc(C)nc(C(F)(F)F)c3)C2)n1 (some centres unmarked) [Product 71]
  Emax: 104%
  IC50: 0.0891 µM

## CCOc1nc(C(C)N2CCC[C@H](Cc3cc(C)nc(C)c3)C2)cn1C (mixture of isomers) [Product 24]
  Emax: 84%
  IC50: 2 µM

## COc1cccc(C(C)N2CC[C@H](Cc3ncccc3F)C2)n1 (mixture of isomers) [Product 148]
  Emax: 11.3%
  IC50: > 10 µM

## CC(=O)Nc1cc(C(C)N2CCCC(CNc3cc(C)nc(C)c3)C2)[nH]n1 (centres unmarked) [Product 87]
  IC50: 0.0288 µM

## CC(=O)Nc1cc(C(C)N2CCC[C@H](Cc3cc(C)nc(C)c3)C2)cnc1C (mixture of isomers) [Product 33]
  Emax: 99%
  IC50: 0.234 µM

## COc1cc(C(C)N2CC[C@@H](Cc3cc(C)nc(OC)c3)C2)c(F)cn1 (mixture of isomers) [Product 102]
  Emax: 85%
  IC50: 1.7 µM

## COc1cccc(C(C)N2CC[C@H](Cc3ncccc3OC)C2)n1 (mixture of isomers) [Product 151]
  Emax: 11.8%
  IC50: > 10 µM

## COc1cccc(C(C)N2CC[C@H](Cc3cccnc3OC)C2)n1 (mixture of isomers) [Product 140]
  Emax: 29.3%
  IC50: > 10 µM

## CC(=O)Nc1cc(CN2CCC[C@H](Cc3cc(C)nc(C)c3)C2)n(C)n1 [Product 11]
  Emax: 90%
  IC50: 1.35 µM

## COc1ncc(C(C)N2CCC[C@H](Cc3cc(C)nc(C)c3)C2)cn1 (mixture of isomers) [Product 65]
  Emax: 93%
  IC50: 0.933 µM

## COc1ncc(C(C)N2CCC[C@H](Cc3cc(C)nc(C)c3)C2)cc1F (mixture of isomers) [Product 45]
  Emax: 92%
  IC50: 0.955 µM

## CC(=O)Nc1[nH]nc([C@H](C)N2CCC[C@H](Cc3cc(C)nc(C)c3)C2)c1C [Product 13]
  Enzymatic Emax (%): 7%
  Enzymatic hOGA; pIC50: <5

## COc1cccc([C@@H](C)N2CCC[C@H](CNc3cc(C)nc(C(F)(F)F)c3)C2)n1 [Product 92]
  Enzymatic Emax (%): 74%
  Enzymatic hOGA; pIC50: 5.31

## CCOc1cc(C[C@H]2CCN(C(C)c3cccc(OC)n3)C2)ccn1 (mixture of isomers) [Product 125]
  Emax: 76%
  IC50: 4.17 µM

## CC(=O)Nc1[nH]nc([C@@H](C)N2CCC[C@H](Cc3cc(C)nc(C)c3)C2)c1C [Product 12]
  Enzymatic Emax (%): 36%
  Enzymatic hOGA; pIC50: <5

## CC(=O)N(C)c1cc(CN2CCC[C@H](Cc3cc(C)nc(C)c3)C2)n[nH]1 [Product 10]
  Emax: 90%
  IC50: 1.32 µM

## Cc1cc(C[C@H]2CCCN(C(C)c3cccc(C(F)(F)F)n3)C2)cc(C)n1 (mixture of isomers) [Product 61]
  Emax: 84%
  IC50: 2.29 µM

## CC(=O)Nc1cc(C(C)N2CC[C@@H](Cc3cc(C)nc(C)c3)C2)n[nH]1 (some centres unmarked) [Product 104]
  Enzymatic Emax (%): 82%
  IC50: 2.82 µM

## COc1cccc([C@@H](C)N2CCC[C@@H](CNc3cc(C)nc(C(F)(F)F)c3)C2)n1 [Product 94]
  Enzymatic Emax (%): 72%
  Enzymatic hOGA; pIC50: 5.24

## COc1cccc(C[C@H]2CCN(C(C)c3cccc(OC)n3)C2)n1 (mixture of isomers) [Product 149]
  Emax: 30.3%
  IC50: > 10 µM

## Cc1cc(C[C@H]2CCCN(Cc3c[nH]c(C)n3)C2)cc(C)n1 [Product 25]
  Emax: 82%
  IC50: 3.02 µM

## COc1cc(C[C@H]2CCN(C(C)c3cc(NC(C)=O)[nH]n3)C2)cc(C)n1 (mixture of isomers) [Product 128]
  Emax: 94%
  IC50: 0.575 µM

## COc1cccc([C@@H](C)N2CCC[C@H](Cc3cc(C)nc(C)c3)C2)n1 [Product 46]
  Enzymatic Emax (%): 12%
  Enzymatic hOGA; pIC50: <5

## COc1ccc(C)c(CN2CCC[C@H](Cc3cc(C)nc(C)c3)C2)n1 [Product 160]
  Emax: 24%
  IC50: > 10 µM

## CC(=O)Nc1cc([C@@H](C)N2CCC[C@H](Cc3cc(C)nc(C)c3)C2)n[nH]1 [Product 4]
  Enzymatic Emax (%): 100%
  Enzymatic hOGA; pIC50: 6.61

## CC(=O)Nc1cc(CN2CCC[C@H](Cc3cc(C)nc(C)c3)C2)cnn1 [Product 62]
  Emax: 94%
  IC50: 0.513 µM

## Cc1cc(C[C@H]2CCCN([C@@H](C)c3cccc(C4CC4)n3)C2)cc(C)n1 [Product 60]
  Enzymatic Emax (%): 88%
  Enzymatic hOGA; pIC50: 5.81

## COc1ccc(F)c([C@H](C)N2CC[C@H](Cc3ncc(F)cc3F)C2)n1 [Product 109]
  Emax: 60%
  IC50: 7.59 µM

## CCOc1cc(CN2CCC[C@H](Cc3cc(C)nc(C)c3)C2)n(C)n1 [Product 161]
  Emax: 52%
  IC50: > 10 µM

## CNC(=O)c1cncc(C(C)N2CC[C@H](Cc3cc(C)nc(OC)c3)C2)c1 (mixture of isomers) [Product 103]
  Emax: 85%
  IC50: 1.66 µM

## CC(=O)Nc1ccnc(C(C)N2CCC[C@H](Cc3cc(C)nc(C)c3)C2)c1 (some centres unmarked) [Product 32]
  Emax: 95%
  IC50: 0.49 µM

## COc1ccc(C)c([C@H](C)N2CCC[C@H](Cc3cc(C)nc(C)c3)C2)n1 [Product 58]
  Enzymatic Emax (%): 96%
  Enzymatic hOGA; pIC50: 6.1

## COc1cccc(C(C)N2CC[C@H](Cc3ccnc(C(F)(F)F)c3)C2)n1 (mixture of isomers) [Product 127]
  Emax: 60%
  IC50: 7.24 µM

## CCOc1cccc(C(C)N2CCCC(Cc3cc(C)nc(C)c3)C2)n1 (single isomer, unassigned) [Product 50]
  Emax: 16%
  IC50: > 10 µM

## COc1cccc(C(C)N2CC[C@H](Cc3cc(OC)nc(C(F)(F)F)c3)C2)n1 (mixture of isomers) [Product 123]
  Emax: 86%
  IC50: 2.82 µM

## CC(=O)Nc1cc(C(C)N2CCCC(CNc3cc(C)nc(C)c3)C2)[nH]n1 (centres unmarked) [Product 83]
  Emax: 103%
  IC50: 0.0603 µM

## CCOc1cc([C@@H](C)N2CCC[C@H](Cc3cc(C)nc(C)c3)C2)n[nH]1 [Product 15]
  Enzymatic Emax (%): 65%
  Enzymatic hOGA; pIC50: 5.27
